Columns and labels:
KRAS_G12C pERK = experiment: Cellular pERK HTRF assay (KRAS_G12C pERK assay); type: cell-based, human; conditions: Homo sapiens, 4 h, KRAS G12C cells, 4 hours incubation with compound; read-out: G12C_pERK
How it was run: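 KRAS-mutant (G12C, G12D, G12V) and KRAS WT cancer cell lines, plated overnight in RPMI/10% FBS, were treated with compound (0.1% DMSO) at 37 °C for 4 h (G12C, G12V) or 2 h (G12D). Lysates were probed with anti-phospho-ERK1/2 HTRF antibody pair read at 665/620 nm; IC50 fitted.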

KRAS G12C = KRAS G12C (Homo sapiens, UniProt P01116, G12C); experiment: GDP-GTP exchange assay (KRAS_G12C exchange assay); type: biochemical; conditions: bodipy-loaded KRAS G12C 2.5 nM, SOS1 150 nM, 2 hours pre-incubation with inhibitor; read-out: G12C_exchange
How it was run: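 Bodipy-GDP-loaded KRAS G12C (2.5 nM final) preincubated 2 hours with compound in 25 mM Hepes pH 7.5, 50 mM NaCl, 10 mM MgCl2, 0.01% Brij-35; exchange started with 500 uM GppNHp and 150 nM SOS1, run 2 hours at ambient temperature. Fluorescence read at 485/520 nm; IC50 by four-parameter logistic fit.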

[1] = Human whole blood stability; type: in vitro ADME; conditions: percent remaining at 4 hr, 1 μM, 37° C.
Protocol: The whole blood stability of the exemplified compounds was determined by LC-MS/MS. The 96-Well Flexi-Tier™ Block (Analytical Sales & Services, Inc, Flanders, NJ) is used for the incubation plate containing 1.0 mL glass vials with 0.5 mL of blood per vial (pooled gender, human whole blood sourced from BIOIVT, Hicksville, NY or similar). Blood is pre-warmed in water bath to 37° C. for 30 minutes. 96-deep well analysis plate is prepared with the addition of 100 μL ultrapure water/well. 50 μL chilled ultrapure water/well is added to 96-deep well sample collection plate and covered with a sealing mat. 1 μL of 0.5 mM compound working solution (DMSO:water) is added to the blood in incubation plate to reach final concentrations of 1 μM, mixed by pipetting thoroughly and 50 μL is transferred 50 into the T=0 wells of the sample collection plate. Blood is allowed to sit in the water for 2 minutes and then 400 μL stop solution/well is added (acetonitrile containing an internal standard). The incubation plate is placed in the Incu-Shaker CO2 Mini incubator (Benchmark Scientific, Sayreville, NJ) at 37° C. with shaking at 150 rpm. At 1, 2 and 4-hr, the blood samples are mixed thoroughly by pipetting and 50 μL is transferred into the corresponding wells of the sample collection plate. Blood is allowed to sit in the water for 2 minutes and then 400 μL of stop solution/well is added. The collection plate is sealed and vortexed at 1700 rpm for 3 minutes (VX-2500 Multi-Tube Vortexer, VWR International, Radnor, PA), and samples are then centrifuged in the collection plate at 3500 rpm for 10 minutes (Allegra X-14R Centrifuge Beckman Coulter, Indianapolis, IN). 100 μL of supernatant/well is transferred from the sample collection plate into the corresponding wells of the analysis plate. The final plate is vortexed at 1700 rpm for 1 minute and analyze samples by LC-MS/MS. The peak area ratio of the 1, 2, and 4 hr samples relative to T=0 is used to determine the percent remaining. The natural log of the percent remaining versus time is used determine a slope to calculate the compounds half-life in blood (t1/2=0.693/slope).

[2] = tested on: KRAS_G12C pERK in MIA PaCa-2 cells; experiment: Whole Blood pERK1/2 HTRF assay (KRAS_G12C WB pERK assay); type: cell-based, human; conditions: Homo sapiens, compound in whole blood, 4 hours, read-out: G12C_WB_pERK
How it was run: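 MIA PaCa-2 (KRAS G12C) cells were grown 2 days, then exposed for 4 h at 37 °C to compound spiked into whole blood (0.5% DMSO). After PBS washes and lysis, phospho-ERK1/2 was read by HTRF at 665/620 nm, and the IC50 came from a curve fit.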

Chain of KRAS G12C (P01116 1-188 isoform P01116-2 G12C): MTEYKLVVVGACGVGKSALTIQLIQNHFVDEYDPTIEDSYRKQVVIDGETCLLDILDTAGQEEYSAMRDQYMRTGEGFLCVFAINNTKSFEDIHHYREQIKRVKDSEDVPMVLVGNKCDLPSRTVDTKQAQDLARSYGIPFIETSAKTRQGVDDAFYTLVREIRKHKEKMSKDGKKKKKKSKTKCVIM

SMILES	IC50 (KRAS_G12C pERK) [µM]	IC50 (KRAS G12C) [µM]	Human whole blood stability at 4 hr [1]	IC50 [2] [µM]
C=C(F)C(=O)N1CC[C@H](n2nnc3c(N4CC(C)(N(C)CC)C4)nc4c(F)c(-c5c(C)c(F)cc6[nH]ncc56)c(Cl)cc4c32)C[C@H]1CC#N (single isomer, unassigned) [Example 35a]	≤ 0.05	≤ 0.05	††† (WBS >90%)	0.05 to 0.1
Cc1cc2c(nc(O[C@@H](C)[C@@H]3CCCN3C)c3nnn([C@H]4CCN(C(=O)/C=C/CF)[C@H](CC#N)C4)c32)c(F)c1-c1ccc2cnn(C)c2c1 [Example 7, 2-((2S,4S)-4-(6-fluoro-8-methyl-7-(1-methyl-1H-indazol-6-yl)-4-((S)-1-((S)-1-methylpyrrolidin-2-yl)ethoxy)-1H-[1,2,3]triazolo[4,5-c]quinolin-1-yl)-1-((E)-4-fluorobut-2-enoyl)piperidin-2-yl)acetonitrile]	≤ 0.05	≤ 0.05	††† (WBS >90%)	≤ 0.05
Cc1ccc(-c2c(C)cc3c(nc(O[C@@H](C)[C@@H]4CCCN4C)c4nnn([C@H]5CCN(C(=O)/C=C/CF)[C@H](CC#N)C5)c43)c2F)cn1 [Example 8, 2-((2S,4S)-4-(6-fluoro-8-methyl-7-(6-methylpyridin-3-yl)-4-((S)-1-((S)-1-methylpyrrolidin-2-yl)ethoxy)-1H-[1,2,3]triazolo[4,5-c]quinolin-1-yl)-1-((E)-4-fluorobut-2-enoyl)piperidin-2-yl)acetonitrile]	≤ 0.05	≤ 0.05	†† (WBS >70% but ≤90%)	≤ 0.05
COC/C=C/C(=O)N1CC[C@H](n2nnc3c(O[C@@H](C)[C@@H]4CCCN4C)nc4c(F)c(-c5ccc(F)cc5)c(C)cc4c32)C[C@H]1CC#N [Example 10, 2-((2S,4S)-4-(6-fluoro-7-(4-fluorophenyl)-8-methyl-4-((S)-1-((S)-1-methylpyrrolidin-2-yl)ethoxy)-1H-[1,2,3]triazolo[4,5-c]quinolin-1-yl)-1-((E)-4-methoxybut-2-enoyl)piperidin-2-yl)acetonitrile]	≤ 0.05	≤ 0.05	††† (WBS >90%)	≤ 0.05
Cc1cccc(-c2c(C)cc3c(nc(N4CC(C)(N(C)C)C4)c4ncn([C@H]5CCN(C(=O)/C=C/CF)[C@H](CC#N)C5)c43)c2F)c1Cl [Example 12, 2-((2S,4S)-4-(7-(2-chloro-3-methylphenyl)-4-(3-(dimethylamino)-3-methylazetidin-1-yl)-6-fluoro-8-methyl-1H-imidazo[4,5-c]quinolin-1-yl)-1-((E)-4-fluorobut-2-enoyl)piperidin-2-yl)acetonitrile]	≤ 0.05	≤ 0.05	††† (WBS >90%)	≤ 0.05
C=C(F)C(=O)N1CC[C@H](n2cnc3c(O[C@@H](C)[C@@H]4CCCN4C)nc4c(F)c(-c5cccc(C)c5Cl)c(C)cc4c32)C[C@H]1CC#N [Example 13, 2-((2S,4S)-4-(7-(2-chloro-3-methylphenyl)-6-fluoro-8-methyl-4-((S)-1-((S)-1-methylpyrrolidin-2-yl)ethoxy)-1H-imidazo[4,5-c]quinolin-1-yl)-1-(2-fluoroacryloyl)piperidin-2-yl)acetonitrile]	≤ 0.05	≤ 0.05	†† (WBS >70% but ≤90%)	0.1 to 1
COC/C=C/C(=O)N1CC[C@H](n2nnc3c(O[C@@H](C)[C@@H]4CCCN4C)nc4c(F)c(-c5ncc(F)c6ccccc56)c(C)cc4c32)C[C@H]1CC#N [Example 21, 2-((2S,4S)-4-(6-fluoro-7-(4-fluoroisoquinolin-1-yl)-8-methyl-4-((S)-1-((S)-1-methylpyrrolidin-2-yl)ethoxy)-1H-[1,2,3]triazolo[4,5-c]quinolin-1-yl)-1-((E)-4-methoxybut-2-enoyl)piperidin-2-yl)acetonitrile]	≤ 0.05	≤ 0.05	††† (WBS >90%)	≤ 0.05

Other lines, results leading:

IC50 (KRAS_G12C pERK) [µM]	IC50 (KRAS G12C) [µM]	Human whole blood stability at 4 hr [1]	IC50 [2] [µM]	SMILES
≤ 0.05	≤ 0.05	††† (WBS >90%)	0.05 to 0.1	C=C(F)C(=O)N1CC[C@H](n2nnc3c(N4CC(C)(N(C)CC)C4)nc4c(F)c(-c5c(C)c(C)cc6[nH]ncc56)c(C)cc4c32)C[C@H]1CC#N (single isomer, unassigned) [Example 30]
≤ 0.05	≤ 0.05	†† (WBS >70% but ≤90%)	0.05 to 0.1	C=CC(=O)N1CC[C@H](n2nnc3c(O[C@@H](C)[C@@H]4CCCN4C)nc4c(F)c(-c5cccc6c5c(CC#N)cn6C)c(C)cc4c32)C[C@H]1C (single isomer, unassigned) [Example 31b]
≤ 0.05	≤ 0.05	†† (WBS >70% but ≤90%)	≤ 0.05	C=CC(=O)N1CCC(n2nnc3c(O[C@@H](C)[C@@H]4CCCN4C)nc4c(F)c(-c5cccc6c5c(CC#N)cn6C)c(C)cc4c32)CC1 (single isomer, unassigned) [Example 32b]
≤ 0.05	≤ 0.05	†† (WBS >70% but ≤90%)	0.05 to 0.1	C=C(F)C(=O)N1CC[C@H](n2nnc3c(N4CC(C)(N(C)CC)C4)nc4c(F)c(-c5c(C)c(C)cc6[nH]ncc56)c(Cl)cc4c32)C[C@H]1CC#N (single isomer, unassigned) [Example 33a]

Source: patent US12441727B2, “Tricyclic compounds as inhibitors of KRAS” (Incyte Corporation, priority 2021, dated 2025)
